Test results published in patent US10239869B2, “Sulfonamide compounds as voltage-gated sodium channel modulators” (LUPIN LIMITED, priority 2015, dated 2019).
Where two headings read alike, the source gives them in different places.

Assays:
Nav 1.7 = Nav 1.7 (Homo sapiens (Human), UniProt Q15858); experiment: Inhibition of sodium channels, Red Membrane Potential Dye FLIPR assay, veratridine depolarization; format: cell-based; details: HEK-293 cells overexpressing the channel; read-out: Nav1.7 IC50
Nav 1.5 = Nav 1.5 (Homo sapiens (Human), UniProt Q14524); experiment: as above; format: cell-based; details: HEK-293 cells overexpressing the channel; for inhibition at 10 µM: HEK-293 cells overexpressing Nav 1.5
[1] = read-out: Nav1.5 IC50 (bound given in μM)

Nav 1.5, sequence (Q14524 whole entry): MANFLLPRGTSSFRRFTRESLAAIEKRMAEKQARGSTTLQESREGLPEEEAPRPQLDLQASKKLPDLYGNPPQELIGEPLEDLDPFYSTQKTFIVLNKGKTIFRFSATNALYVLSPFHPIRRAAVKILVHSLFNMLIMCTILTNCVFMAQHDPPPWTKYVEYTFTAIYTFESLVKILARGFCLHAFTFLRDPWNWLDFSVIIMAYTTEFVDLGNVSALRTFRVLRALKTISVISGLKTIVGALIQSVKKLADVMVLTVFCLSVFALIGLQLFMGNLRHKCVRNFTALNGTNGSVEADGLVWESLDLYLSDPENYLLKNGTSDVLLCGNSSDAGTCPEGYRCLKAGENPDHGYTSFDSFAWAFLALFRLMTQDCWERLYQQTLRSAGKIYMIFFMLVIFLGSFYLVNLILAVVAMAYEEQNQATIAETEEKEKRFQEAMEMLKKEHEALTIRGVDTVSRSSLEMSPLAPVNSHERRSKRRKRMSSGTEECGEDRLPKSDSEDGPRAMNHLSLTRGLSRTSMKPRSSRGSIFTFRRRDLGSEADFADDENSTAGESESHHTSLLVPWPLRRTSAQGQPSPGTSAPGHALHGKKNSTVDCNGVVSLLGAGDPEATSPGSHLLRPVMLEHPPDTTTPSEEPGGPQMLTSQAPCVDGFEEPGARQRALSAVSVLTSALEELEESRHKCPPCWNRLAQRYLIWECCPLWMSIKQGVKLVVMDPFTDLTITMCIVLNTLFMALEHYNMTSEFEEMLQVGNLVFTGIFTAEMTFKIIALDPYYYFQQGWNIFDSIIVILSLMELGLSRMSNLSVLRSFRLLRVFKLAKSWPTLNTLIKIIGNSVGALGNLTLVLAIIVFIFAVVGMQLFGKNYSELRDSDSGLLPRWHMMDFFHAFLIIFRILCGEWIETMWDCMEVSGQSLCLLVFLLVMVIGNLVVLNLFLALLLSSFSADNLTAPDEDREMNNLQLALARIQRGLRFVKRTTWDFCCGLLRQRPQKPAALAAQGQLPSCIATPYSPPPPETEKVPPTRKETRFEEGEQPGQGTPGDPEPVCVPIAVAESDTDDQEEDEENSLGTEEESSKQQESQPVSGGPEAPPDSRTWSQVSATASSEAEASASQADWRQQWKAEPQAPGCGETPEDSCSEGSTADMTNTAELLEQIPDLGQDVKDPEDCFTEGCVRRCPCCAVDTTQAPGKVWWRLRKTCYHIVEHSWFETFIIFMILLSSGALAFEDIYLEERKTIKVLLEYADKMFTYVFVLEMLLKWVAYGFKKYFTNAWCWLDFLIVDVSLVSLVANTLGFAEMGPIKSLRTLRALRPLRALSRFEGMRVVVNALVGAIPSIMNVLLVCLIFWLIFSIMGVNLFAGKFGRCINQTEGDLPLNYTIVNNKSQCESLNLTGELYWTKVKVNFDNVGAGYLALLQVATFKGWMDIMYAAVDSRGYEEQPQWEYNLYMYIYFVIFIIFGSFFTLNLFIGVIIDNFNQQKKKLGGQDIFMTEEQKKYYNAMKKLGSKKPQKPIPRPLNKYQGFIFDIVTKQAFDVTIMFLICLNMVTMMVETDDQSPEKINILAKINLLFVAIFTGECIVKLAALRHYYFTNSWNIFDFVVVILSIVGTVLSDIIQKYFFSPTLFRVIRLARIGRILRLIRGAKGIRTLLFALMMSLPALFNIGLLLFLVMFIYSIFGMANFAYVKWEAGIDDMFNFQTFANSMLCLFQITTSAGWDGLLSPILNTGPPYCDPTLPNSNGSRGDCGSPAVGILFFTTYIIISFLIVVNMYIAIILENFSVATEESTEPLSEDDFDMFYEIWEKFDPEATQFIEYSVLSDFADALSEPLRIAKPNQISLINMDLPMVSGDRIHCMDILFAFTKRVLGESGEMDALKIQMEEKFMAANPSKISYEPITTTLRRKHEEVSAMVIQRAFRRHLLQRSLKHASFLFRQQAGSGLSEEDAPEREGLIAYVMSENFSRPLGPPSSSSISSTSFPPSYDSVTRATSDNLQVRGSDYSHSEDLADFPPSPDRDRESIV
Nav 1.7, sequence (Q15858 whole entry): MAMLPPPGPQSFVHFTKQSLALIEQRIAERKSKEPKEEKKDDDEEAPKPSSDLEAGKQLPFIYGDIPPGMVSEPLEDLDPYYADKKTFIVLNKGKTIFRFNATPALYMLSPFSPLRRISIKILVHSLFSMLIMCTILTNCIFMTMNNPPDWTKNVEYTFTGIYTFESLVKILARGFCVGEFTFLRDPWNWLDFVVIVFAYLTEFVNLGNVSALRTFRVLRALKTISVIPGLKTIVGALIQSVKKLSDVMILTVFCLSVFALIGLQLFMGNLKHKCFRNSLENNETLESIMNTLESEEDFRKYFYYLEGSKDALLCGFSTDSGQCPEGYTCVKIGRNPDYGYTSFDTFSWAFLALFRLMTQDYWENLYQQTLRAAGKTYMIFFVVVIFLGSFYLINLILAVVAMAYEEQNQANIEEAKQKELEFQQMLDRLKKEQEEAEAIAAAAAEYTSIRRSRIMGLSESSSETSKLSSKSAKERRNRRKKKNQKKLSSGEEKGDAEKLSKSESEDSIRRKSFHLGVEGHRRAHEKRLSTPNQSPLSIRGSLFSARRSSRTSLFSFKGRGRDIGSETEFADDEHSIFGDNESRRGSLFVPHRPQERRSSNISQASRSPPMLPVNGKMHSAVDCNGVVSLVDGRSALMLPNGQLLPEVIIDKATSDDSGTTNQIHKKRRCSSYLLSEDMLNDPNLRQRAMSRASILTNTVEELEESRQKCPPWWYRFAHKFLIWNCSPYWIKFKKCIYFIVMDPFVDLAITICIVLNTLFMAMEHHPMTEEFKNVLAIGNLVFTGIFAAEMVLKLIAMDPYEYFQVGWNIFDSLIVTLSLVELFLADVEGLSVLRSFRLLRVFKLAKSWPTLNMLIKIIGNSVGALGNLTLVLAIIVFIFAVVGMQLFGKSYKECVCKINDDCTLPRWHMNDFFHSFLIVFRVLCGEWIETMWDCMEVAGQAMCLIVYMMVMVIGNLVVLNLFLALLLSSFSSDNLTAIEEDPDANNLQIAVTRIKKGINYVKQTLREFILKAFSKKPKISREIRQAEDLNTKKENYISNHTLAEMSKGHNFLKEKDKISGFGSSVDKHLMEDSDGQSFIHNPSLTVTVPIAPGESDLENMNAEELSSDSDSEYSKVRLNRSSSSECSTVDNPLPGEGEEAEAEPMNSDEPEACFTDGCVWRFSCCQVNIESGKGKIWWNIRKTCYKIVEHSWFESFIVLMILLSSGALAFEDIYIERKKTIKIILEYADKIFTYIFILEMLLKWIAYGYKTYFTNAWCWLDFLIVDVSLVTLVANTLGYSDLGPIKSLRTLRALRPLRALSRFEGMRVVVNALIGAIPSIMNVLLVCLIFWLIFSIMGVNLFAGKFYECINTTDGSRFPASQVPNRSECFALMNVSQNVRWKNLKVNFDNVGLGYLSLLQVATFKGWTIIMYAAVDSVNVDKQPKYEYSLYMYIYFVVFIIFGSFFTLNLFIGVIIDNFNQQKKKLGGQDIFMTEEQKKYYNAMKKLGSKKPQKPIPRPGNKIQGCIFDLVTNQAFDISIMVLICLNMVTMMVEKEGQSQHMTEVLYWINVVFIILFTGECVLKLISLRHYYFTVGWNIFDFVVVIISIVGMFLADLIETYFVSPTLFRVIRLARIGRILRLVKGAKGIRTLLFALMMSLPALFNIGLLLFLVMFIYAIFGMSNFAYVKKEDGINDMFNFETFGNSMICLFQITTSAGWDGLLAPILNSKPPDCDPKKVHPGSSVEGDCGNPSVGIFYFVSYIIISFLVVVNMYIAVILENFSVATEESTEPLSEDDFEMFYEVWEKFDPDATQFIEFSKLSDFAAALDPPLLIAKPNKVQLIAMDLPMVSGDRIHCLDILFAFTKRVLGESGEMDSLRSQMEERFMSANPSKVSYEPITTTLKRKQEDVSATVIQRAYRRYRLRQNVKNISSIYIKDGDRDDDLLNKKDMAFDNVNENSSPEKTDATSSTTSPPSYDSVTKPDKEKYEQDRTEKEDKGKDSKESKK

In the case of `O=S(=O)(Nc1ncccn1)c1ccc2c(c1)OCC[C@@H]2c1ccc(C(F)(F)F)cc1CCF` (racemic) [Example 153, (R/S)-4-(2-(2-fluoroethyl)-4-(trifluoromethyl)phenyl)-N-(pyrimidin-2-yl)chroman-7-sulfonamide], the IC50 (Nav 1.7) is reported as 39 nM and the inhibition at 10 µM (Nav 1.5) is reported as 35%.

With `O=S(=O)(Nc1ncc(F)cn1)c1ccc2c(c1)OCC[C@@H]2c1ccc(C(F)(F)F)cc1CCF` (racemic) [Example 154, (R/S)-4-(2-(2-fluoroethyl)-4-(trifluoromethyl)phenyl)-N-(5-fluoropyrimidin-2-yl)chroman-7-sulfonamide] the IC50 (Nav 1.7) was 83 nM and the IC50 (Nav 1.5; [1]) was over 10 µM.

With `O=S(=O)(Nc1ccncn1)c1ccc2c(c1)OCC[C@@H]2c1ccc(C(F)(F)F)cc1CCF` (racemic) [Example 155, (R/S)-4-(2-(2-fluoroethyl)-4-(trifluoromethyl)phenyl)-N-(pyrimidin-4-yl)chroman-7-sulfonamide] the IC50 (Nav 1.7) was 4 nM and the IC50 (Nav 1.5; [1]) was over 10 µM.

`O=S(=O)(Nc1cccnn1)c1ccc2c(c1)OCC[C@@H]2c1ccc(C(F)(F)F)cc1CCF` (racemic) [Example 156, (R/S)-4-(2-(2-fluoroethyl)-4-(trifluoromethyl)phenyl)-N-(pyridazin-3-yl)chroman-7-sulfonamide] was tested, and the IC50 (Nav 1.7) was 42 nM and the inhibition at 10 µM (Nav 1.5) was 36%.

Compound `O=S(=O)(Nc1cccc(F)n1)c1ccc2c(c1)OCC[C@@H]2c1ccc(C(F)(F)F)cc1CCF` (racemic) [Example 157, (R/S)-4-(2-(2-fluoroethyl)-4-(trifluoromethyl)phenyl)-N-(6-fluoropyridin-2-yl)chroman-7-sulfonamide] has an IC50 (Nav 1.7) of 42 nM and an IC50 (Nav 1.5; [1]) of over 10 µM.

`O=S(=O)(Nc1ncccn1)c1ccc2c(c1)OCC[C@@H]2c1ccc(C(F)(F)F)cc1CCCF` (racemic) [Example 158, (R/S)-4-(2-(3-fluoropropyl)-4-(trifluoromethyl)phenyl)-N-(pyrimidin-2-yl)chroman-7-sulfonamide] showed an IC50 (Nav 1.7) of 130 nM and an IC50 (Nav 1.5; read-out: Nav1.5 IC50) of 0.505 µM.

Compound `O=S(=O)(Nc1ncc(F)cn1)c1ccc2c(c1)OCC[C@@H]2c1ccc(C(F)(F)F)cc1CCCF` (racemic) [Example 159, (R/S)-4-(2-(3-fluoropropyl)-4-(trifluoromethyl)phenyl)-N-(5-fluoropyrimidin-2-yl)chroman-7-sulfonamide] has an IC50 (Nav 1.7) of 10 nM and an IC50 (Nav 1.5; read-out: Nav1.5 IC50) of 0.943 µM.

Work on `O=S(=O)(Nc1ccncn1)c1ccc2c(c1)OCC[C@@H]2c1ccc(C(F)(F)F)cc1CCCF` (racemic) [Example 160, (R/S)-4-(2-(3-fluoropropyl)-4-(trifluoromethyl)phenyl)-N-(pyrimidin-4-yl)chroman-7-sulfonamide] yielded an IC50 (Nav 1.7) of 0.7 nM and an inhibition at 10 µM (Nav 1.5) of 61%.

`O=S(=O)(Nc1cccnn1)c1ccc2c(c1)OCC[C@@H]2c1ccc(C(F)(F)F)cc1CCCF` (racemic) [Example 161, (R/S)-4-(2-(3-fluoropropyl)-4-(trifluoromethyl)phenyl)-N-(pyridazin-3-yl)chroman-7-sulfonamide] was tested, and the IC50 (Nav 1.7) was 12 nM and the IC50 (Nav 1.5; read-out: Nav1.5 IC50) was 1.35 µM.

`O=S(=O)(Nc1cccc(F)n1)c1ccc2c(c1)OCC[C@@H]2c1ccc(C(F)(F)F)cc1CCCF` (racemic) [Example 162, (R/S)-4-(2-(3-fluoropropyl)-4-(trifluoromethyl)phenyl)-N-(6-fluoropyridin-2-yl)chroman-7-sulfonamide] gave an IC50 (Nav 1.7) of 0.7 nM and an IC50 (Nav 1.5; read-out: Nav1.5 IC50) of 2.64 µM.

Compound `O=S(=O)(Nc1ncccn1)c1ccc2c(c1)OCC[C@@H]2c1ccc(C(F)(F)F)cc1CCCCF` (racemic) [Example 163, (R/S)-4-(2-(4-fluorobutyl)-4-(trifluoromethyl)phenyl)-N-(pyrimidin-2-yl)chroman-7-sulfonamide] has an IC50 (Nav 1.7) of 42 nM and an IC50 (Nav 1.5; read-out: Nav1.5 IC50) of 0.307 µM.

`O=S(=O)(Nc1ncc(F)cn1)c1ccc2c(c1)OCC[C@@H]2c1ccc(C(F)(F)F)cc1CCCCF` (racemic) [Example 164, (R/S)-4-(2-(4-fluorobutyl)-4-(trifluoromethyl)phenyl)-N-(5-fluoropyrimidin-2-yl)chroman-7-sulfonamide] showed an IC50 (Nav 1.7) of 61 nM and an inhibition at 10 µM (Nav 1.5) of 81%.

Compound `O=S(=O)(Nc1ccncn1)c1ccc2c(c1)OCC[C@@H]2c1ccc(C(F)(F)F)cc1CCCCF` (racemic) [Example 165, (R/S)-4-(2-(4-fluorobutyl)-4-(trifluoromethyl)phenyl)-N-(pyrimidin-4-yl)chroman-7-sulfonamide] has an IC50 (Nav 1.7) of 5 nM and an IC50 (Nav 1.5; read-out: Nav1.5 IC50) of 0.303 µM.

Work on `O=S(=O)(Nc1cccnn1)c1ccc2c(c1)OCC[C@@H]2c1ccc(C(F)(F)F)cc1CCCCF` (racemic) [Example 166, (R/S)-4-(2-(4-fluorobutyl)-4-(trifluoromethyl)phenyl)-N-(pyridazin-3-yl)chroman-7-sulfonamide] yielded an IC50 (Nav 1.7) of 50 nM and an IC50 (Nav 1.5; read-out: Nav1.5 IC50) of 0.134 µM.

Work on `O=S(=O)(Nc1cccc(F)n1)c1ccc2c(c1)OCC[C@@H]2c1ccc(C(F)(F)F)cc1CCCCF` (racemic) [Example 167, (R/S)-4-(2-(4-fluorobutyl)-4-(trifluoromethyl)phenyl)-N-(6-fluoropyridin-2-yl)chroman-7-sulfonamide] yielded an IC50 (Nav 1.7) of 58 nM and an IC50 (Nav 1.5; read-out: Nav1.5 IC50) of 0.241 µM.

Compound `O=S(=O)(Nc1ncc(F)cn1)c1ccc2c(c1)OCC[C@@H]2c1ccc(C(F)(F)F)cc1O[C@H]1CCOC1` (racemic) [Example-182, (S/R)—N-(5-fluoropyrimidin-2-yl)-4-(2-(((S)-tetrahydrofuran-3-yl)oxy)-4-(trifluoromethyl)phenyl)chroman-7-sulfonamide] has an IC50 (Nav 1.7) of 55 nM and an inhibition at 10 µM (Nav 1.5) of 30%.

Work on `O=S(=O)(Nc1ccncn1)c1ccc2c(c1)OCC[C@@H]2c1ccc(C(F)(F)F)cc1O[C@H]1CCOC1` (racemic) [Example-183, (S/R)—N-(pyrimidin-4-yl)-4-(2-(((S)-tetrahydrofuran-3-yl)oxy)-4-(trifluoromethyl)phenyl)chroman-7-sulfonamide] yielded an IC50 (Nav 1.7) of 11 nM and an IC50 (Nav 1.5; [1]) of over 10 µM.

`O=S(=O)(Nc1cccnn1)c1ccc2c(c1)OCC[C@@H]2c1ccc(C(F)(F)F)cc1O[C@H]1CCOC1` (racemic) [Example-184, (S/R)—N-(pyridazin-3-yl)-4-(2-(((S)-tetrahydrofuran-3-yl)oxy)-4-(trifluoromethyl)phenyl)chroman-7-sulfonamide] gave an IC50 (Nav 1.7) of 170 nM and an inhibition at 10 µM (Nav 1.5) of 67%.

Compound `O=C(O)c1ccc(-c2cc(C(F)(F)F)ccc2[C@H]2CCOc3cc(S(=O)(=O)Nc4cccnn4)ccc32)cc1` (racemic) [Example-191, (R/S)-2′-(7-(N-(pyridazin-3-yl)sulfamoyl)chroman-4-yl)-5′-(trifluoromethyl)-[1,1′-biphenyl]-4-carboxylic acid] has an IC50 (Nav 1.7) of 671 nM and an IC50 (Nav 1.5; [1]) of over 10 µM.

`O=C(O)c1ccc(-c2cc(C(F)(F)F)ccc2[C@H]2CCOc3cc(S(=O)(=O)Nc4cccc(F)n4)ccc32)cc1` (racemic) [Example-192, (R/S)-2′-(7-(N-(6-fluoropyridin-2-yl)sulfamoyl)chroman-4-yl)-5′-(trifluoromethyl)-[1,1′-biphenyl]-4-carboxylic acid] showed an IC50 (Nav 1.7) of 8 nM and an IC50 (Nav 1.5; [1]) of over 10 µM.

For `O=C1OCCN1c1cc(C(F)(F)F)ccc1[C@H]1CCOc2cc(S(=O)(=O)Nc3ncccn3)ccc21` (racemic) [Example-207, (R/S)-4-(2-(2-oxooxazolidin-3-yl)-4-(trifluoromethyl)phenyl)-N-(pyrimidin-2-yl)chroman-7-sulfonamide], the IC50 (Nav 1.7) was 49 nM and the IC50 (Nav 1.5; [1]) was over 10 µM.

Work on `O=C1OCCN1c1cc(C(F)(F)F)ccc1[C@H]1CCOc2cc(S(=O)(=O)Nc3ncc(F)cn3)ccc21` (racemic) [Example-208, (R/S)—N-(5-fluoropyrimidin-2-yl)-4-(2-(2-oxooxazolidin-3-yl)-4-(trifluoromethyl)phenyl)chroman-7-sulfonamide] yielded an IC50 (Nav 1.7) of 46 nM and an IC50 (Nav 1.5; [1]) of over 10 µM.

For `O=C1OCCN1c1cc(C(F)(F)F)ccc1[C@H]1CCOc2cc(S(=O)(=O)Nc3cccnn3)ccc21` (racemic) [Example-209, (R/S)-4-(2-(2-oxooxazolidin-3-yl)-4-(trifluoromethyl)phenyl)-N-(pyridazin-3-yl)chroman-7-sulfonamide], the IC50 (Nav 1.7) was 47 nM and the inhibition at 10 µM (Nav 1.5) was 28%.

With `O=C1OCCN1c1cc(C(F)(F)F)ccc1[C@H]1CCOc2cc(S(=O)(=O)Nc3cccc(F)n3)ccc21` (racemic) [Example-210, (R/S)—N-(6-fluoropyridin-2-yl)-4-(2-(2-oxooxazolidin-3-yl)-4-(trifluoromethyl)phenyl)chromane-7-sulfonamide] the IC50 (Nav 1.7) was 48 nM and the IC50 (Nav 1.5; [1]) was over 10 µM.

`O=S(=O)(Nc1ncccn1)c1ccc2c(c1)OCC[C@@H]2c1ccc(C(F)(F)F)cc1CCC(F)F` (racemic) [Example-211, (R/S)-4-(2-(3,3-difluoropropyl)-4-(trifluoromethyl)phenyl)-N-(pyrimidin-2-yl)chroman-7-sulfonamide] showed an IC50 (Nav 1.7) of 7 nM and an IC50 (Nav 1.5; read-out: Nav1.5 IC50) of 0.777 µM.

`O=S(=O)(Nc1ncc(F)cn1)c1ccc2c(c1)OCC[C@@H]2c1ccc(C(F)(F)F)cc1CCC(F)F` (racemic) [Example-212, (R/S)-4-(2-(3,3-difluoropropyl)-4-(trifluoromethyl)phenyl)-N-(5-fluoropyrimidin-2-yl)chroman-7-sulfonamide] gave an IC50 (Nav 1.7) of 18 nM and an IC50 (Nav 1.5; [1]) of over 10 µM.

Compound `O=S(=O)(Nc1ccncn1)c1ccc2c(c1)OCC[C@@H]2c1ccc(C(F)(F)F)cc1CCC(F)F` (racemic) [Example-213, (R/S)-4-(2-(3,3-difluoropropyl)-4-(trifluoromethyl)phenyl)-N-(pyrimidin-4-yl)chroman-7-sulfonamide] has an IC50 (Nav 1.7) of 34 nM and an inhibition at 10 µM (Nav 1.5) of 65%.

For `O=S(=O)(Nc1cccnn1)c1ccc2c(c1)OCC[C@@H]2c1ccc(C(F)(F)F)cc1CCC(F)F` (racemic) [Example-214, (R/S)-4-(2-(3,3-difluoropropyl)-4-(trifluoromethyl)phenyl)-N-(pyridazin-3-yl)chroman-7-sulfonamide], the IC50 (Nav 1.7) was 2 nM and the IC50 (Nav 1.5; read-out: Nav1.5 IC50) was 0.635 µM.

Work on `O=S(=O)(Nc1cccc(F)n1)c1ccc2c(c1)OCC[C@@H]2c1ccc(C(F)(F)F)cc1CCC(F)F` (racemic) [Example-215, (R/S)-4-(2-(3,3-difluoropropyl)-4-(trifluoromethyl)phenyl)-N-(6-fluoropyridin-2-yl)chromane-7-sulfonamide] yielded an IC50 (Nav 1.7) of 38 nM and an IC50 (Nav 1.5; read-out: Nav1.5 IC50) of 1.35 µM.
